pIC50: −log10 of the molar value.
Columns and labels:
[1] = system: AsPC-1 cells; assay: In vitro AsPC-1 cell proliferation experiment (10 days, 3D CellTiter-Glo); type: cell-based; details: 10 days culture
Method: RPMI1640 medium, penicillin/streptomycin antibiotics were purchased from Gibco, and fetal bovine serum was purchased from Hyclone. 3D CellTiter-Glo (cell viability chemiluminescent detection reagent) reagent was purchased from Promega. The AsPC-1 cell line was purchased from ATCC, Envision multilabel plate reader (PerkinElmer).
AsPC-1 cells were seeded in an ultra-low adsorption 96-well U-shaped plate, with 80 μL of cell suspension per well, containing 1,000 AsPC-1 cells. The plate was incubated overnight in a carbon dioxide incubator.
The test compound was diluted by 5-fold to 8 concentrations with a pipette, i.e., from 2 mM to 25.6 nM and replicate wells were set up for the experiment. 78 μL of culture medium was added to the intermediate plate, then 2 μL of the gradient diluted compound was transferred into each well of the intermediate plate according to the corresponding position. After mixing well, 20 μL of each well was transferred to the cell plate. […] Another cell plate was prepared, and the signal value was read as the maximum value (the maximum value in the following equation) on the day of dosing for data analysis.
100 μL of cell viability chemiluminescent detection reagent was added to the cell plate and incubated at room temperature for 30 minutes to stabilize the luminescence signal. A multilabel plate reader was used for reading. […]

[2] = system: p-ERK level in AsPC-1 cells; assay: Detection of p-ERK level in AsPC-1 cells (HTRF); type: cell-based; details: 3 hours incubation; read-out: AsPC-1 pERK IC50
Method: AsPC-1 cells were purchased from ATCC: RPMI-1640 medium was purchased from Gibco; fetal bovine serum was purchased from Hyclone; Advanced Phospho-ERK1/2(THR202/TYR204) KIT was purchased from Bioauxilium-Advanced Phospho; ERK1/2(THR202/TYR204) KIT components were: Advanced PhosphoERK1/2 Eu Cryptate antibody, Advanced PhosphoERK1/2 d2 antibody, Blocking reagent (stock solution 100×), Lysis buffer #1 (stock solution 4×). Detection buffer (ready-to-use), with a storage temperature of ≤−16° C. for all.
(1) The cells were seeded in a white-bottomed 384-well cell culture plate, 8 μL of cell suspension per well, each well containing 7,500 cells. The cell plate was placed in a carbon dioxide incubator and incubated overnight at 37° C.;
(2) The test compound was diluted with 100% DMSO to 3 mM as the first concentration, and then diluted with a pipette to 10 concentrations of 3,000, 1,000, 300, 100, 30, 10, 3, 1, 0.3 and 0.1 μM. 2 μL of the compound was taken and added to 198 μL of cell starvation medium, mixed well, 15 μl, of compound solution was taken and added to 35 μL of cell starvation medium and mixed well. […]
(5) After incubation, a multilabel plate reader was used to read the HTRF excitation: 320 nm, emission: 615 nm, and 665 nm. […]

[3] = system: human lung bronchial benign NCI—H727 cells; assay: In vivo pharmacodynamic study, NCI-H727 subcutaneous xenograft tumor model in BALB/c nude mice; details: gavage once daily
Method: To study the in vivo efficacy of a compound of the present disclosure on human lung bronchial benign NCI—H727 cells in a subcutaneous xenograft tumor model in BALB/c nude mice.
Laboratory animals: Female BALB/c nude mice, 6-8 weeks old, weighing 18-22 g; supplier Beijing Vital River Laboratory Animal Technology Co., Ltd.
(1) Cell culture: Human lung bronchial benign tumor cells were cultured in vitro in a monolayer, and the culture conditions were 10% fetal bovine serum added to Gibco RMPI1640 medium, incubated at 37° C. in a 5% CO2 incubator. Routine passage was performed twice a week with trypsin-EDTA for digestion. When the cell saturation was 80%-90% and the required number was reached, the cells were collected, counted, and inoculated.
(2) Tumour cell inoculation and grouping: 0.2 mL (2×10^6) of NCI—H727 cells (Matrigel was added in a volume ratio of 1:1) were inoculated subcutaneously into the right back of each mouse, and dosing was initiated when the mean tumor volume reached approximately 134 mm^3, with 6 animals in each group.
The vehicle was 5% DMSO/10% solutol/85% water. Control group: The vehicle was administered twice daily by gavage at a dose of 10 μL/g; treatment group: After dissolving the test compound in the vehicle, the compound was administered by gavage once daily.
(3) The tumor diameter was measured with a vernier caliper twice weekly, and the tumor volume(V) was calculated. The formula is: V=0.5a×b^2, where a and b are the long and short diameters of the tumor, respectively. The tumor inhibitory efficacy of the test compound was evaluated by the tumor growth inhibition rate (TGI). The calculation formula is: TGI %=1−(Mean tumor volume at the end of dosing in a treatment group−Mean tumor volume at the start of dosing in this treatment group)/(Mean tumor volume at the end of treatment in the vehicle control group−Mean tumor volume at the start of treatment in the vehicle control group)×100%.

[4] = 25 mg/kg on Days 1-6 and 1 mg/kg on Days 7-21, Day 21

Question: How did the pIC50 [1] turn out when `CCn1c(-c2cc(N3CCN(C)CC3)cnc2C(C)OC)c2c3cc(ccc31)-c1csc(n1)CC(NC(=O)C1C(C)C1C)C(=O)N1NC(C(=O)OCC(C)(C)C2)C2CC1C2` (single isomer, unassigned) [Compound 6A] was run?
Answer: 9.00

Question: And the pIC50 [2]?
Answer: 9.52

Question: What about the “Tumour Volume (mm^3) Day 1” value ([3]; 5 mg/kg, Day 1) of the same molecule?
Answer: 134.6 mm^3

Question: What about the “Tumour Volume (mm^3) Day 7” value ([3]; 5 mg/kg, Day 7) of the same molecule?
Answer: 86.5 mm^3

Question: What about the “Tumour Volume (mm^3) Day 14” value ([3]; 5 mg/kg, Day 14) of the same molecule?
Answer: 78.5 mm^3

Question: And the “TGI (%)” value ([3]; 5 mg/kg, Day 21)?
Answer: 104.4%

Question: And the “Tumour Volume (mm^3) Day 21” value ([3]; 5 mg/kg, Day 21)?
Answer: 51.6 mm^3

Question: What about the “Tumour Volume (mm^3) Day 1” value ([3]; 25 mg/kg on Days 1-6 and 1 mg/kg on Days 7-21, Day 1) of the same molecule?
Answer: 134.5 mm^3

Question: What about the “Tumour Volume (mm^3) Day 7” value ([3]; 25 mg/kg on Days 1-6 and 1 mg/kg on Days 7-21, Day 7) of the same molecule?
Answer: 76.8 mm^3

Question: What about the “Tumour Volume (mm^3) Day 14” value ([3]; 25 mg/kg on Days 1-6 and 1 mg/kg on Days 7-21, Day 14) of the same molecule?
Answer: 71.1 mm^3

Question: What about the “TGI (%)” value [3, 4] of the same molecule?
Answer: 103.2%

Question: What about the “Tumour Volume (mm^3) Day 21” value [3, 4] of the same molecule?
Answer: 75.1 mm^3
